Data as given in US8999921B2, “Process for diagnosing rheumatic diseases” (Cypress Bioscience, Inc., priority 2005, dated 2015).

Experiments:
[1] = tested on: antibodies to the polypeptides of the invention; assay: Follow-up of antibody titer (ELISA based on the polypeptide) and DAS score in treated RA patients; assay type: in vivo, human; conditions: for antibody titers, fraction of the starting value: patients with low disease activity (average DAS 2.8), in the course of 1-2 years, on average; for alteration in the DAS score due to treatment: severe rheumatoid arthritis (average DAS score of 4.9)
Source text: Patients having low disease activity (average DAS score of 2.8) were identified by an ELISA based on the polypeptide of the invention (<300 U/ml on average). Correlating with the success of treatment (DAS score less than 1.5 after treatment) with sulfasalazine or cortisone, the antibody titers were reduced to, on average, ⅙ of the starting value in the course of 1-2 years.
Patients suffering from severe rheumatoid arthritis (average DAS score of 4.9) had, on average, an antibody titer of >1000 U/ml. […] In parallel with the altered antibody titer, patients reported during anamnesis a substantially more positive overall evaluation of their subjective situation regarding the disease, i.e. the diagnostic agent of the invention is also suitable for quality control of the therapy of a severe rheumatoid arthritis.

[2] = target: T1, antibody binding to mutated vimentin (Homo sapiens, UniProt P08670, A54Y/A67Y/G16R/G41R/G59R/G76R/P18T/P24T/P46T/P75T/R78S); assay: Blocking of antibody binding to mutated vimentin in vitro (ELISA, RA sera)
T1 construct: His-tag; made in house; host or cells: E. coli
T1 sequence (P08670 whole entry G16R/P18T/P24T/G41R/P46T/A54Y/G59R/A67Y/P75T/G76R/R78S): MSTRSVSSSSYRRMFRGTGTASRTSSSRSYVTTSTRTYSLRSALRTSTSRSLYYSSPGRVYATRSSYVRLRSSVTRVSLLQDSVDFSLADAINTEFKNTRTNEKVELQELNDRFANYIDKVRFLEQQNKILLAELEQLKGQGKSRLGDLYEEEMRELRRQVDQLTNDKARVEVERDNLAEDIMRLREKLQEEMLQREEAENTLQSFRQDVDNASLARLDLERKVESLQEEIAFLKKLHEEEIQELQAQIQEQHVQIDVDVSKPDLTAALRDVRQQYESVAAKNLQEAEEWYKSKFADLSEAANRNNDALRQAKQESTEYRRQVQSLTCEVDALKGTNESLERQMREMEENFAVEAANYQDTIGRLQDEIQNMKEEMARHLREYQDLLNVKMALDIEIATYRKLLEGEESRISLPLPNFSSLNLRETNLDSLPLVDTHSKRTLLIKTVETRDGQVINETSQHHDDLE
Procedure: To prepare an extract from green tea, 5 g of any commercially available tea were covered with 10 ml of 80% DMSO and stirred overnight. The solution was centrifuged at 13 000 rpm for 10. min and defined as tea extract. In contrast to the above solid substances 1, 2 and 4-6, 10 μl/ml tea extract of this preparation were employed. Antibody binding in the presence and absence of substances was analyzed in an ELISA for which microtiter plates were prepared analogously to Example 2. Different sera of RA patients were used in dilutions of from 1:100 to 1:400. Blocking of antibody binding was induced by preincubating 100 μl of the diluted serum with the substances or tea solutions indicated for 10 min. Subsequently, the remaining crossreaction was analyzed by transferring the 100 μl of serum-substance mixture to the cavities of said microtiter plate. According to the procedure of a classical ELISA, the bound antibodies were detected by means of a HRP-conjugated anti-human IgG. FIG. 3 depicts by way of example the results obtained using patient serum No. 400725.

[3] = Oral administration of freeze-dried tea extract to rats, plasma analysis by HPLC and GC/MS; assay type: in vivo
Source text: Therefore the tea extracts prepared by us (see Example 7) were freeze-dried and reconstituted with cocoa oil or salmon oil. After oral administration of an extract prepared from 5 g of green tea (5 g/kg of body weight) to rats, blood was taken every half hour and analyzed by means of HPLC and GC/MS.

vimentin = vimentin (Homo sapiens, UniProt P08670); conditions: Ermakova et al. 2005; cited from earlier work
vimentin, sequence (P08670 whole entry, species assumed): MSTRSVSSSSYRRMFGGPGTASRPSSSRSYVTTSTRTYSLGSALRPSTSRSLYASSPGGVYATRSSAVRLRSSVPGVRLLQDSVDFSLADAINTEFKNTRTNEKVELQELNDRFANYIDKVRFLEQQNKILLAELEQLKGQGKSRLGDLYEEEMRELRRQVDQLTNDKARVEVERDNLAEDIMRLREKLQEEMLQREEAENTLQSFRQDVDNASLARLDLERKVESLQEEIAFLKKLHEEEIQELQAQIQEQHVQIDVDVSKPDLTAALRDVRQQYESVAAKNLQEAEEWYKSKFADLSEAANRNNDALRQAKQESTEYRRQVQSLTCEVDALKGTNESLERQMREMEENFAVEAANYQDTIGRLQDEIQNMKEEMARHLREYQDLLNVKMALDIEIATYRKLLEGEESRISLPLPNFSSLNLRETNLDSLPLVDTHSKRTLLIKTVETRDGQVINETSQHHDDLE

[4] = extract from 5 g green tea (5 g/kg of body weight)

Question: With `C[C@]12CCC(=O)C=C1CC[C@@H]1[C@@H]2C(=O)C[C@@]2(C)[C@H]1CC[C@]2(O)C(=O)CO` [cortisone] as the compound, how does the “antibody titers, fraction of the starting value” [1] read?
Answer: ⅙

Question: Which “blocking of formation of autoimmune complexes of autoantibodies to mutated vimentin” value [2] does the source give for `O=C(O[C@@H]1Cc2c(O)cc(O)cc2O[C@@H]1c1cc(O)c(O)c(O)c1)c1cc(O)c(O)c(O)c1` [EGCG, Epigallocatechin gallate] here?
Answer: blocked in a concentration-dependent manner

Question: What about the “blocking of antibody binding” value ([2]; concentration of 10-100 μg/ml) of the same compound?
Answer: no more than 45%

Question: And the “maximum plasma concentration for EGCG (content of 50% in the extract)” value [3, 4]?
Answer: about 245 μg/ml

Question: And the “maximum plasma concentration of EC and EGCG (5-13% of the extract mass)” value [3, 4]?
Answer: 75 µg/mL

Question: And the “time of maximum plasma concentration after intake” value ([3]; extract from 5 g green tea (5 g/kg of body weight) in cocoa oil or salmon oil)?
Answer: About 2 hours

Question: What about the binding to vimentin (vimentin) of the same compound?
Answer: binds to vimentin

Question: With `O=C(O)c1cc(/N=N/c2ccc(S(=O)(=O)Nc3ccccn3)cc2)ccc1O` [sulfasalazine] as the compound, how does the “antibody titers, fraction of the starting value” [1] read?
Answer: ⅙

Question: For `CN(Cc1cnc2nc(N)nc(N)c2n1)c1ccc(C(=O)N[C@@H](CCC(=O)O)C(=O)O)cc1` [methotrexate], which “alteration in the DAS score due to treatment” value [1] is on record?
Answer: no significant alteration

Question: With `Oc1cc(O)c2c(c1)O[C@H](c1ccc(O)c(O)c1)[C@H](O)C2` [EC, Epicatechin] as the compound, how does the “blocking of antibody binding” value ([2]; competition experiments, maximum) read?
Answer: ≤ 10%

Question: With “Remicade: marketed drug used to treat severe rheumatoid arthritis” as the compound, how does the “alteration in the DAS score due to treatment” value [1] read?
Answer: no significant alteration
